Test results reported in publication PMC5218480 (PLoS ONE, 2017).

Tested on: MV-4-11 cells
Assay: Gene expression microarray analysis (Affymetrix PrimeView) and GSEA
Format: cell-based, human
Set-up: RFU PODN (11730768_x_at) / Fold change /veh PODN (11730768_x_at) / RFU LINC00158 (11744669_a_at) / Fold change /veh LINC00158 (11744669_a_at) / RFU DUSP10 (11751237_a_at) / Fold change /veh DUSP10 (11751237_a_at) / RFU ID3 (11757404_x_at) / Fold change /veh ID3 (11757404_x_at) / RFU PLEKHG5 (11737974_s_at) / Fold change /veh PLEKHG5 (11737974_s_at) / RFU LRRC4B (11730491_at) / Fold change /veh LRRC4B (11730491_at) / RFU GIMAP4 (11747438_a_at) / Fold change /veh GIMAP4 (11747438_a_at) / RFU KRT8 (11758183_x_at) / Fold change /veh KRT8 (11758183_x_at) / RFU CNN1 (11734310_a_at) / Fold change /veh CNN1 (11734310_a_at) / RFU VPS37D (11726825_at) / Fold change /veh VPS37D (11726825_at) / RFU C10orf10 (11716522_x_at) / Fold change /veh C10orf10 (11716522_x_at) / RFU KIR2DL2 /// KIR2DL4 /// KIR2DL5A /// KIR2DL5B /// KIR2DS1 /// KIR2DS2 /// KIR2DS3 /// KIR2DS4 /// KIR3DL3 /// KIR3DL3 /// KIR3DS1 (11738374_at) / Fold change /veh KIR2DL2 /// KIR2DL4 /// KIR2DL5A /// KIR2DL5B /// KIR2DS1 /// KIR2DS2 /// KIR2DS3 /// KIR2DS4 /// KIR3DL3 /// KIR3DL3 /// KIR3DS1 (11738374_at) / RFU C1QL1 (11718748_at) / Fold change /veh C1QL1 (11718748_at) / RFU TMPRSS4 (11747572_a_at) / Fold change /veh TMPRSS4 (11747572_a_at) / RFU HAMP (11756126_x_at) / Fold change /veh HAMP (11756126_x_at) / RFU RNFT2 (11725882_a_at) / Fold change /veh RNFT2 (11725882_a_at) / RFU NR4A2 (11747474_a_at) / Fold change /veh NR4A2 (11747474_a_at) / RFU ABCC12 (11746883_a_at) / Fold change /veh ABCC12 (11746883_a_at) / RFU TMEM136 (11760407_x_at) / Fold change /veh TMEM136 (11760407_x_at) / RFU CLDN22 /// WWC2 (11732394_at) / Fold change /veh CLDN22 /// WWC2 (11732394_at) / RFU HLA-DPB1 (11760878_x_at) / Fold change /veh HLA-DPB1 (11760878_x_at) / RFU SPINT1 (11716480_a_at) / Fold change /veh SPINT1 (11716480_a_at) / RFU GAP43 (11754022_s_at) / Fold change /veh GAP43 (11754022_s_at) / RFU A4GNT (11735810_at) / Fold change /veh A4GNT (11735810_at) / RFU PRB3 (11715151_x_at) / Fold change /veh PRB3 (11715151_x_at) / RFU TUBB4B (11761932_at) / Fold change /veh TUBB4B (11761932_at) / RFU CAPN14 (11732068_a_at) / Fold change /veh CAPN14 (11732068_a_at) / RFU TMCC2 (11721928_a_at) / Fold change /veh TMCC2 (11721928_a_at) / RFU IRGQ (11745062_a_at) / Fold change /veh IRGQ (11745062_a_at) / RFU FAM174B (11720279_a_at) / Fold change /veh FAM174B (11720279_a_at) / RFU TMPRSS4 (11748680_a_at) / Fold change /veh TMPRSS4 (11748680_a_at) / RFU FAM212B (11763350_a_at) / Fold change /veh FAM212B (11763350_a_at) / RFU PLEKHG5 (11743358_a_at) / Fold change /veh PLEKHG5 (11743358_a_at) / RFU ZSCAN30 (11745921_a_at) / Fold change /veh ZSCAN30 (11745921_a_at) / RFU CMKLR1 (11741424_a_at) / Fold change /veh CMKLR1 (11741424_a_at) / RFU LOC101060620 /// MAPK8IP1 (11723275_at) / Fold change /veh LOC101060620 /// MAPK8IP1 (11723275_at) / RFU SPTSSB (11747773_x_at) / Fold change /veh SPTSSB (11747773_x_at) / RFU PRSS12 (11739890_at) / Fold change /veh PRSS12 (11739890_at) / RFU BIN1 (11741810_x_at) / Fold change /veh BIN1 (11741810_x_at) / RFU WNT11 (11732464_a_at) / Fold change /veh WNT11 (11732464_a_at) / RFU C10orf10 (11716521_a_at) / Fold change /veh C10orf10 (11716521_a_at) / RFU C5orf56 (11738089_at) / Fold change /veh C5orf56 (11738089_at) / RFU CYB561 (11721691_x_at) / Fold change /veh CYB561 (11721691_x_at) / RFU ANKRD19P (11752326_a_at) / Fold change /veh ANKRD19P (11752326_a_at) / RFU OR2T12 /// OR2T33 /// OR2T8 (11738714_s_at) / Fold change /veh OR2T12 /// OR2T33 /// OR2T8 (11738714_s_at) / RFU VCAN (11748164_a_at) / Fold change /veh VCAN (11748164_a_at) / RFU JSRP1 (11732532_at) / Fold change /veh JSRP1 (11732532_at) / RFU KRTAP10-11 (11738290_x_at) / Fold change /veh KRTAP10-11 (11738290_x_at) / RFU MYO3A (11730013_a_at) / Fold change /veh MYO3A (11730013_a_at) / RFU EBF3 (11725865_a_at) / Fold change /veh EBF3 (11725865_a_at) / RFU CAMK2N1 (11719241_x_at) / Fold change /veh CAMK2N1 (11719241_x_at) / RFU C5orf56 (11738088_a_at) / Fold change /veh C5orf56 (11738088_a_at) / RFU OLFML3 (11715873_a_at) / Fold change /veh OLFML3 (11715873_a_at) / RFU LOC100653217 /// NTM (11731650_a_at) / Fold change /veh LOC100653217 /// NTM (11731650_a_at) / RFU MAPK11 (11762145_a_at) / Fold change /veh MAPK11 (11762145_a_at) / RFU FIZ1 (11724087_x_at) / Fold change /veh FIZ1 (11724087_x_at) / RFU OASL (11726364_x_at) / Fold change /veh OASL (11726364_x_at) / RFU SOX15 (11748057_x_at) / Fold change /veh SOX15 (11748057_x_at) / RFU CD79A (11719716_a_at) / Fold change /veh CD79A (11719716_a_at) / RFU HIST1H1D (11736915_at) / Fold change /veh HIST1H1D (11736915_at) / RFU CASKIN2 (11723855_a_at) / Fold change /veh CASKIN2 (11723855_a_at) / RFU LOC730098 (11760151_x_at) / Fold change /veh LOC730098 (11760151_x_at) / RFU OR4N2 (11742367_at) / Fold change /veh OR4N2 (11742367_at) / RFU PRRT2 (11749266_a_at) / Fold change /veh PRRT2 (11749266_a_at) / RFU SNX32 (11753110_a_at) / Fold change /veh SNX32 (11753110_a_at) / RFU CDHR5 (11726645_a_at) / Fold change /veh CDHR5 (11726645_a_at) / RFU RCAN1 (11760418_a_at) / Fold change /veh RCAN1 (11760418_a_at) / RFU FAM167A (11723789_a_at) / Fold change /veh FAM167A (11723789_a_at) / RFU FAM26E (11764081_at) / Fold change /veh FAM26E (11764081_at) / RFU ISYNA1 (11749810_s_at) / Fold change /veh ISYNA1 (11749810_s_at) / RFU ACY1 (11761880_at) / Fold change /veh ACY1 (11761880_at) / RFU 11764098_at / Fold change /veh 11764098_at / RFU SAMD14 (11745864_x_at) / Fold change /veh SAMD14 (11745864_x_at) / RFU NPB (11741838_a_at) / Fold change /veh NPB (11741838_a_at) / RFU TMPRSS6 (11731388_a_at) / Fold change /veh TMPRSS6 (11731388_a_at) / RFU KRTAP10-2 (11738614_at) / Fold change /veh KRTAP10-2 (11738614_at) / RFU ARHGAP8 /// PRR5-ARHGAP8 (11727945_x_at) / Fold change /veh ARHGAP8 /// PRR5-ARHGAP8 (11727945_x_at) / RFU KRTAP5-7 /// NADSYN1 (11734609_at) / Fold change /veh KRTAP5-7 /// NADSYN1 (11734609_at) / RFU RASL12 (11751679_a_at) / Fold change /veh RASL12 (11751679_a_at) / RFU CDKN2B (11736163_a_at) / Fold change /veh CDKN2B (11736163_a_at) / RFU PRF1 (11729649_at) / Fold change /veh PRF1 (11729649_at) / RFU, ZNF638 /// ZNF638-IT1 / Fold change vs veh, ZNF638 /// ZNF638-IT1 / RFU, PANK3 / Fold change vs veh, PANK3 / RFU, SH3YL1 / Fold change vs veh, SH3YL1 / RFU, ZEB2 / Fold change vs veh, ZEB2 / RFU, NRIP1 / Fold change vs veh, NRIP1 / RFU, PTTG1IP / Fold change vs veh, PTTG1IP / RFU, CAPN2 / Fold change vs veh, CAPN2 / RFU, MED14 / Fold change vs veh, MED14 / RFU, SNORA58 / Fold change vs veh, SNORA58 / RFU, C1orf63 / Fold change vs veh, C1orf63 / RFU, LRRFIP1 / Fold change vs veh, LRRFIP1 / RFU, NDUFAF7 / Fold change vs veh, NDUFAF7 / RFU, SLC12A2 / Fold change vs veh, SLC12A2 / RFU, IBTK / Fold change vs veh, IBTK / RFU, ESF1 / Fold change vs veh, ESF1 / Fold change vs veh, TMEM50B / RFU, TAOK1 / Fold change vs veh, TAOK1 / RFU, ACBD3 / Fold change vs veh, ACBD3 / RFU, TMA16 / Fold change vs veh, TMA16 / RFU, RWDD3 / Fold change vs veh, RWDD3 / RFU, BCAT1 / Fold change vs veh, BCAT1 / RFU, EDEM3 / Fold change vs veh, EDEM3 / RFU, TMEM33 / Fold change vs veh, TMEM33 / RFU, WDR75 / Fold change vs veh, WDR75 / RFU, AHCTF1 / Fold change vs veh, AHCTF1 / RFU, TFRC / Fold change vs veh, TFRC / RFU, ZDHHC17 / Fold change vs veh, ZDHHC17 / RFU, NOM1 / Fold change vs veh, NOM1 / RFU, ARL8B / Fold change vs veh, ARL8B / RFU, ZBTB11 / Fold change vs veh, ZBTB11 / RFU, TAMM41 / Fold change vs veh, TAMM41 / RFU, KIAA1704 /// LOC100996395 / Fold change vs veh, KIAA1704 /// LOC100996395 / RFU, ING1 / Fold change vs veh, ING1 / RFU, TRMT61B / Fold change vs veh, TRMT61B / RFU, FUBP3 / Fold change vs veh, FUBP3 / RFU, TP53 / Fold change vs veh, TP53 / RFU, TNKS2 / Fold change vs veh, TNKS2 / RFU, ZFP14 / Fold change vs veh, ZFP14 / RFU, ACTR2 / Fold change vs veh, ACTR2 / RFU, PPP3R1 / Fold change vs veh, PPP3R1 / RFU, PIK3R1 / Fold change vs veh, PIK3R1 / RFU, HNRNPA1 / Fold change vs veh, HNRNPA1 / RFU, RNF170 / Fold change vs veh, RNF170 / RFU, ZNF28 / Fold change vs veh, ZNF28 / RFU, RNGTT / Fold change vs veh, RNGTT / RFU, OGT / Fold change vs veh, OGT / RFU, BRD1 / Fold change vs veh, BRD1 / RFU, MARS / Fold change vs veh, MARS / RFU, ZNF655 / Fold change vs veh, ZNF655 / RFU, FAHD1 / Fold change vs veh, FAHD1 / RFU, BDP1 / Fold change vs veh, BDP1 / RFU, LRRCC1 / Fold change vs veh, LRRCC1 / RFU, ARID1A / Fold change vs veh, ARID1A / RFU, ZNF146 / Fold change vs veh, ZNF146 / RFU, ZNF330 / Fold change vs veh, ZNF330 / RFU, GPN3 / Fold change vs veh, GPN3 / RFU, C9orf123 / Fold change vs veh, C9orf123 / RFU, N4BP2L2 / Fold change vs veh, N4BP2L2 / RFU, ARFIP1 / Fold change vs veh, ARFIP1 / RFU, FAM179B / Fold change vs veh, FAM179B / RFU, BCL10 / Fold change vs veh, BCL10 / RFU, UHRF1BP1L / Fold change vs veh, UHRF1BP1L / RFU, BET1 / Fold change vs veh, BET1 / RFU, CNOT2 / Fold change vs veh, CNOT2 / RFU, ZNF268 / Fold change vs veh, ZNF268 / Fold change vs veh, ZNF507 / RFU, DGCR2 / Fold change vs veh, DGCR2 / RFU, WDSUB1 / Fold change vs veh, WDSUB1 / Fold change vs veh, HSP90B1 /// MIR3652 / RFU, ADSS / Fold change vs veh, ADSS / RFU, GK / Fold change vs veh, GK / RFU, ZNF148 / Fold change vs veh, ZNF148 / RFU, TAF9 / Fold change vs veh, TAF9 / RFU, SLC1A5 / Fold change vs veh, SLC1A5 / RFU, SLMO2 / Fold change vs veh, SLMO2 / RFU, ABCC4 / Fold change vs veh, ABCC4 / RFU, LOC101060439 /// RAP1B / Fold change vs veh, LOC101060439 /// RAP1B / RFU, RFX7 / Fold change vs veh, RFX7 / RFU, GTPBP10 / Fold change vs veh, GTPBP10 / RFU, CNEP1R1 / Fold change vs veh, CNEP1R1 / RFU, BIVM-ERCC5 /// ERCC5 / Fold change vs veh, BIVM-ERCC5 /// ERCC5 / RFU, ILF3 / Fold change vs veh, ILF3 / RFU 11762660_at / Fold change /veh 11762660_at / RFU VCAN (11757783_s_at) / Fold change /veh VCAN (11757783_s_at) / RFU DDX43 (11728927_at) / Fold change /veh DDX43 (11728927_at) / RFU KRT8 (11758188_x_at) / Fold change /veh KRT8 (11758188_x_at) / RFU NKD1 (11759106_at) / Fold change /veh NKD1 (11759106_at) / RFU SRD5A1 (11742802_a_at) / Fold change /veh SRD5A1 (11742802_a_at) / RFU TPSAB1 /// TPSB2 (11721975_s_at) / Fold change /veh TPSAB1 /// TPSB2 (11721975_s_at) / RFU GSTM3 (11746129_a_at) / Fold change /veh GSTM3 (11746129_a_at) / RFU IL23R (11737362_x_at) / Fold change /veh IL23R (11737362_x_at) / RFU TMEM51 (11727254_a_at) / Fold change /veh TMEM51 (11727254_a_at) / RFU PIWIL2 (11732686_x_at) / Fold change /veh PIWIL2 (11732686_x_at) / RFU ORM1 (11744905_x_at) / Fold change /veh ORM1 (11744905_x_at) / RFU CCDC152 (11743942_at) / Fold change /veh CCDC152 (11743942_at) / RFU ECM1 (11717891_a_at) / Fold change /veh ECM1 (11717891_a_at) / RFU IL23R (11748794_a_at) / Fold change /veh IL23R (11748794_a_at) / RFU TNFAIP8L3 (11732012_x_at) / Fold change /veh TNFAIP8L3 (11732012_x_at) / RFU MBOAT4 (11741988_at) / Fold change /veh MBOAT4 (11741988_at) / RFU 11764193_at / Fold change /veh 11764193_at / RFU TMEM53 (11763286_at) / Fold change /veh TMEM53 (11763286_at) / RFU MAGEB2 (11727129_at) / Fold change /veh MAGEB2 (11727129_at) / RFU TMEM200A (11744735_a_at) / Fold change /veh TMEM200A (11744735_a_at) / RFU CCDC152 (11751479_a_at) / Fold change /veh CCDC152 (11751479_a_at) / RFU FAM211A (11726209_a_at) / Fold change /veh FAM211A (11726209_a_at) / RFU RGS16 (11746705_a_at) / Fold change /veh RGS16 (11746705_a_at) / RFU VCAN (11755009_s_at) / Fold change /veh VCAN (11755009_s_at) / RFU RHOB (11743442_s_at) / Fold change /veh RHOB (11743442_s_at) / RFU RGS16 (11720943_a_at) / Fold change /veh RGS16 (11720943_a_at) / RFU RGS16 (11720944_at) / Fold change /veh RGS16 (11720944_at) / RFU, VPS4B / Fold change vs veh, VPS4B / RFU, CREB1 / Fold change vs veh, CREB1 / RFU, DNAJC13 / Fold change vs veh, DNAJC13 / RFU, GNAQ / Fold change vs veh, GNAQ / RFU, CDK5R1 / Fold change vs veh, CDK5R1 / RFU, ZRANB3 / Fold change vs veh, ZRANB3 / RFU, CUL4A / Fold change vs veh, CUL4A / RFU, CCNY / Fold change vs veh, CCNY / RFU, UFL1 / Fold change vs veh, UFL1 / RFU, COG3 / Fold change vs veh, COG3 / RFU, DIAPH2 / Fold change vs veh, DIAPH2 / RFU, SKA2 / Fold change vs veh, SKA2 / RFU, AFF3 / Fold change vs veh, AFF3 / RFU, LMF1 / Fold change vs veh, LMF1 / RFU, IPO11 / Fold change vs veh, IPO11 / RFU, DFFB / Fold change vs veh, DFFB / RFU, FOXP1 / Fold change vs veh, FOXP1 / RFU, CARD8 / Fold change vs veh, CARD8 / RFU, STRN3 / Fold change vs veh, STRN3 / RFU, ADK / Fold change vs veh, ADK / RFU, RASSF2 / Fold change vs veh, RASSF2 / RFU, WIPF1 / Fold change vs veh, WIPF1 / RFU, LARP1B / Fold change vs veh, LARP1B / RFU, RASA1 / Fold change vs veh, RASA1 / RFU, RB1 / Fold change vs veh, RB1 / RFU, PPFIA1 / Fold change vs veh, PPFIA1 / RFU, MAT2A / Fold change vs veh, MAT2A / RFU, CCT5 / Fold change vs veh, CCT5 / RFU, WDR92 / Fold change vs veh, WDR92 / RFU, CUX1 / Fold change vs veh, CUX1 / RFU, TTC7A / Fold change vs veh, TTC7A / RFU, TMEM135 / Fold change vs veh, TMEM135 / RFU, DEPTOR / Fold change vs veh, DEPTOR / RFU, CPM / Fold change vs veh, CPM / RFU, DNAJB6 / Fold change vs veh, DNAJB6 / RFU, CACNA2D3 / Fold change vs veh, CACNA2D3 / RFU, DTX4 / Fold change vs veh, DTX4 / RFU, TFCP2 / Fold change vs veh, TFCP2 / RFU, GMCL1 /// GMCL1P1 / Fold change vs veh, GMCL1 /// GMCL1P1 / RFU, AEBP2 / Fold change vs veh, AEBP2 / RFU, SNHG1 /// SNORD22 /// SNORD25 /// SNORD26 /// SNORD27 /// SNORD28 /// SNORD29 /// SNORD31 / Fold change vs veh, SNHG1 /// SNORD22 /// SNORD25 /// SNORD26 /// SNORD27 /// SNORD28 /// SNORD29 /// SNORD31 / Fold change (Aza/veh), C12orf56 (ProbeSet 11735607_a_at) / Fold change (ACY-1035/veh), C12orf56 (ProbeSet 11735607_a_at) / Fold change (Aza/veh), FGFR1OP (ProbeSet 11751329_s_at) / Fold change (ACY-1035/veh), FGFR1OP (ProbeSet 11751329_s_at) / Fold change (Aza/veh), VPS36 (ProbeSet 11739960_a_at) / Fold change (ACY-1035/veh), VPS36 (ProbeSet 11739960_a_at) / RFU SYPL1 (11715823_x_at) / Fold change /veh SYPL1 (11715823_x_at) / RFU IGFBP7 (11715501_s_at) / Fold change /veh IGFBP7 (11715501_s_at) / RFU REEP3 (11722064_at) / Fold change /veh REEP3 (11722064_at) / RFU IGLL1 (11728026_x_at) / Fold change /veh IGLL1 (11728026_x_at): dose or concentration left out as unconfirmed
Details: ProbeSet 11758779_at; LIST B

For `Nc1ncn([C@@H]2O[C@H](CO)[C@@H](O)[C@H]2O)c(=O)n1` [azacitidine], the “Fold change vs veh, TMEM50B” value was 0.94.
